Experimental data published in patent US20100222269A1, “IMPROVED DERIVATIVES OF AMYLIN” (priority 2007, published 2010).
Where two headings read alike, the source gives them in different places. Starred links: 1 amine or outer side, 2 acyl side, 3 side chain; linkers in the order of their positions; H or OH if unused. Positions of bridges follow the written chain, without caps; N, C: chain ends. Residues, ends and D or L forms follow the SMILES beside them. Groups on a side chain read outwards from the residue. *: point of attachment. X1 = O=C(CCCCCCCCCCCCCCCc1nnn[nH]1)NS(=O)(=O)CCCC(=O)*; C18 diacid = O=C(O)CCCCCCCCCCCCCCCCC(=O)*; γGlu = O=C(O)[C@H](CCC(=O)[*:2])N[*:1]

Biological target: T1, Amylin 3(a) receptor (human calcitonin receptor (CTa) with RAMP-3) (Homo sapiens, UniProt O60896+P30988)
T1 construct: expressed in transfected cells; host or cells: BHK570 (baby hamster kidney) cells, stably transfected, with CRE-luciferase reporter
T1 sequence (O60896 24-148): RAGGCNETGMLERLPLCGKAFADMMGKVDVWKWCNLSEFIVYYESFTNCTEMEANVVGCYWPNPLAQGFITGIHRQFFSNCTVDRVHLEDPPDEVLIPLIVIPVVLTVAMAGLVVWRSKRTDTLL
T1 sequence (P30988 25-474): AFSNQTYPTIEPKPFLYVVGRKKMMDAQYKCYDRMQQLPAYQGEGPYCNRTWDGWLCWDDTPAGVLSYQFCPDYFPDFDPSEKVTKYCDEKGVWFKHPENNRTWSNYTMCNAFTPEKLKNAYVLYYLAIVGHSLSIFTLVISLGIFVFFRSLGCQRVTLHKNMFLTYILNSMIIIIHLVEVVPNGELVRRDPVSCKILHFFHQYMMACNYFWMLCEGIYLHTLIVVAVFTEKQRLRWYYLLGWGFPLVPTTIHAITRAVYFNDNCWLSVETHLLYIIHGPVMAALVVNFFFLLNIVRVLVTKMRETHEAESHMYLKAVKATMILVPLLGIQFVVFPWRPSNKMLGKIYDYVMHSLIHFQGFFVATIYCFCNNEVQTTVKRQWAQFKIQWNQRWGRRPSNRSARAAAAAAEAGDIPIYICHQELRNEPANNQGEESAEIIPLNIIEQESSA
Assay: Amylin luciferase assay (CRE-luciferase reporter in BHK Amylin 3(a)//CRE-luc cells)
Format: cell-based
Summary of the method: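 BHK570 cells stably expressing human calcitonin receptor (CTa), RAMP-3 and a CRE-luciferase reporter, about 20.000 cells/well, were exposed to standard or sample for 4 h at 37° C in phenol-red-free DMEM with 10% FBS and 10 mM Hepes pH 7,4. Luminescence was read after 30 min with LucLite at room temperature.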

| EC50 (BHK570 cells with human calcitonin receptor (CTa), RAMP-3 and CRE-luciferase reporter, 4 hours incubation, read-out: Potency luciferase assay) [nM] | Structure (SMILES) | EC50 [nM] |
| --- | --- | --- |
| 0.06 | CC[C@H](C)[C@H](NC(=O)[C@@H]1CCCN1C(=O)CNC(=O)[C@H](Cc1ccccc1)NC(=O)[C@H](CC(N)=O)NC(=O)[C@H](CC(N)=O)NC(=O)[C@H](CO)NC(=O)[C@H](CO)NC(=O)[C@H](Cc1c[nH]cn1)NC(=O)[C@@H](NC(=O)[C@H](CC(C)C)NC(=O)[C@H](Cc1ccccc1)NC(=O)[C@H](CC(N)=O)NC(=O)[C@H](C)NC(=O)[C@H](CC(C)C)NC(=O)[C@H](CCCNC(=N)N)NC(=O)[C@H](CCC(N)=O)NC(=O)[C@@H](NC(=O)[C@H](C)NC(=O)[C@@H]1CSSC[C@H](NC(=O)[C@H](CCC(=O)O)NC(=O)[C@H](CCCNC(=N)N)NC(=O)[C@H](CCC(=O)O)NC(=O)[C@H](CCC(=O)O)NC(=O)CCCCCCCCCCCCCCCCC(=O)O)C(=O)N[C@@H](CC(N)=O)C(=O)N[C@@H]([C@@H](C)O)C(=O)N[C@@H](C)C(=O)N[C@@H]([C@@H](C)O)C(=O)N1)[C@@H](C)O)C(C)C)C(=O)N[C@@H](CC(C)C)C(=O)N1CCC[C@H]1C(=O)N1CCC[C@H]1C(=O)N[C@H](C(=O)N[C@@H](CC(N)=O)C(=O)N[C@H](C(=O)NCC(=O)N[C@@H](CO)C(=O)N[C@@H](CC(N)=O)C(=O)N[C@H](C(=O)N[C@@H](Cc1ccc(O)cc1)C(N)=O)[C@@H](C)O)C(C)C)[C@@H](C)O [Example 41, N-alpha-(17-carboxyheptadecanoyl)-Glu-Glu-Arg-[Glu1]pramlintide (1-37)] ({C18 diacid}-EERECNTATCATQRLANFLVHSSNNFGPILPPTNVGSNTY-NH2; disulfide 5-10; C-terminus assumed) | – |
| – | CC[C@H](C)[C@H](NC(=O)[C@@H]1CCCN1C(=O)CNC(=O)[C@H](Cc1ccccc1)NC(=O)[C@H](CC(N)=O)NC(=O)[C@H](CC(N)=O)NC(=O)[C@H](CO)NC(=O)[C@H](CO)NC(=O)[C@H](Cc1c[nH]cn1)NC(=O)[C@@H](NC(=O)[C@H](CC(C)C)NC(=O)[C@H](Cc1ccccc1)NC(=O)[C@H](CC(N)=O)NC(=O)[C@H](C)NC(=O)[C@H](CC(C)C)NC(=O)[C@H](CCCNC(=N)N)NC(=O)[C@H](CCC(N)=O)NC(=O)[C@@H](NC(=O)[C@H](C)NC(=O)[C@@H]1CSSC[C@H](N)C(=O)N[C@@H](CCCCNC(=O)CC[C@H](NC(=O)CCCS(=O)(=O)NC(=O)CCCCCCCCCCCCCCCc2nnn[nH]2)C(=O)O)C(=O)N[C@@H]([C@@H](C)O)C(=O)N[C@@H](C)C(=O)N[C@@H]([C@@H](C)O)C(=O)N1)[C@@H](C)O)C(C)C)C(=O)N[C@@H](CC(C)C)C(=O)N1CCC[C@H]1C(=O)N1CCC[C@H]1C(=O)N[C@H](C(=O)N[C@@H](CC(N)=O)C(=O)N[C@H](C(=O)NCC(=O)N[C@@H](CO)C(=O)N[C@@H](CC(N)=O)C(=O)N[C@H](C(=O)N[C@@H](Cc1ccc(O)cc1)C(N)=O)[C@@H](C)O)C(C)C)[C@@H](C)O [Example 42, N-epsilon3-{4-carboxy-4-[4-(16-1H-tetrazol-5-ylhexadecanoylsulfamoyl)butyrylamino]butyryl}-[Lys3]-pramlintide (2-37)] (H-CK([γGlu-X1])TATCATQRLANFLVHSSNNFGPILPPTNVGSNTY-NH2; disulfide 1-6; N-terminus and C-terminus assumed) | 0.04 |
